Source: the NIST ThermoML archive (doi:10.1021/je8007759)

Experiment: xn = mol fraction of the nth substance listed

CC1CCC(=O)O1 (stereo not given) [γ-valerolactone] + O=C=O
mass density [kg/m3], Fluid (supercritical or subcritical phases), Pycnometric method
Settings | 322.9 K | 327.9 K
9870 kPa, x1 = 0.01 | 521 | –
9890 kPa, x1 = 0.01 | 526 | –
9920 kPa, x1 = 0.01 | 529 | –
9940 kPa, x1 = 0.01 | 532 | –
9960 kPa, x1 = 0.01 | 535 | –
9980 kPa, x1 = 0.01 | 539 | –
10000 kPa, x1 = 0.01 | 540 | –
10020 kPa, x1 = 0.01 | 542 | –
10050 kPa, x1 = 0.01 | 547 | –
10080 kPa, x1 = 0.01 | 550 | –
10100 kPa, x1 = 0.01 | 554 | –
10110 kPa, x1 = 0.01 | 556 | –
10140 kPa, x1 = 0.01 | 559 | –
10170 kPa, x1 = 0.01 | 563 | –
10200 kPa, x1 = 0.01 | 566 | –
10230 kPa, x1 = 0.01 | 576 | –
10230 kPa, x1 = 0.025 | 673 | –
10240 kPa, x1 = 0.025 | 675 | –
10260 kPa, x1 = 0.01 | 574 | –
10270 kPa, x1 = 0.025 | 679 | –
10290 kPa, x1 = 0.01 | 578 | –
10310 kPa, x1 = 0.025 | 683 | –
10330 kPa, x1 = 0.01 | 582 | –
10370 kPa, x1 = 0.01 | 586 | –
10370 kPa, x1 = 0.025 | 687 | –
10380 kPa, x1 = 0.15 | 939 | –
10400 kPa, x1 = 0.01 | 590 | –
10430 kPa, x1 = 0.01 | 594 | –
10440 kPa, x1 = 0.025 | 692 | –
10470 kPa, x1 = 0.01 | 598 | –
10470 kPa, x1 = 0.025 | 696 | –
10510 kPa, x1 = 0.05 | 766 | –
10520 kPa, x1 = 0.01 | 602 | –
10540 kPa, x1 = 0.025 | 701 | –
10550 kPa, x1 = 0.05 | 769 | –
10570 kPa, x1 = 0.01 | 606 | 497
10600 kPa, x1 = 0.01 | – | 500
10600 kPa, x1 = 0.05 | 771 | –
10610 kPa, x1 = 0.025 | 705 | –
10620 kPa, x1 = 0.01 | 610 | –
10630 kPa, x1 = 0.01 | – | 502
10630 kPa, x1 = 0.1 | 881 | –
10660 kPa, x1 = 0.01 | – | 505
10670 kPa, x1 = 0.025 | 710 | –
10680 kPa, x1 = 0.01 | 615 | –
10690 kPa, x1 = 0.01 | – | 509
10700 kPa, x1 = 0.1 | 882 | –
10720 kPa, x1 = 0.01 | 619 | 511
10720 kPa, x1 = 0.05 | 776 | –
10740 kPa, x1 = 0.01 | – | 514
10750 kPa, x1 = 0.025 | 714 | –
10770 kPa, x1 = 0.01 | – | 517
10770 kPa, x1 = 0.1 | 884 | –
10780 kPa, x1 = 0.01 | 624 | –
10820 kPa, x1 = 0.01 | – | 522
10820 kPa, x1 = 0.025 | 718 | –
10840 kPa, x1 = 0.01 | 629 | –
10840 kPa, x1 = 0.1 | 885 | –
10860 kPa, x1 = 0.05 | 781 | –
10880 kPa, x1 = 0.01 | – | 529
10880 kPa, x1 = 0.15 | 943 | –
10900 kPa, x1 = 0.01 | 633 | –
10910 kPa, x1 = 0.025 | 723 | –
10930 kPa, x1 = 0.01 | – | 535
10980 kPa, x1 = 0.01 | 638 | –
11000 kPa, x1 = 0.1 | 888 | –
11010 kPa, x1 = 0.01 | – | 542
11010 kPa, x1 = 0.05 | 787 | –
11020 kPa, x1 = 0.025 | 727 | –
11040 kPa, x1 = 0.01 | 641 | –
11080 kPa, x1 = 0.01 | – | 549
11090 kPa, x1 = 0.025 | 732 | –
11130 kPa, x1 = 0.01 | – | 554
11160 kPa, x1 = 0.01 | 650 | –
11180 kPa, x1 = 0.05 | 792 | –
11190 kPa, x1 = 0.01 | – | 559
11190 kPa, x1 = 0.025 | 737 | –
11200 kPa, x1 = 0.15 | 945 | –
11230 kPa, x1 = 0.1 | 892 | –
11280 kPa, x1 = 0.01 | – | 567
11290 kPa, x1 = 0.01 | 657 | –
11300 kPa, x1 = 0.025 | – | 661
11310 kPa, x1 = 0.025 | 742 | –
11360 kPa, x1 = 0.025 | – | 665
11380 kPa, x1 = 0.05 | 797 | –
11420 kPa, x1 = 0.01 | – | 578
11420 kPa, x1 = 0.025 | – | 669
11450 kPa, x1 = 0.025 | 747 | –
11480 kPa, x1 = 0.025 | – | 673
11510 kPa, x1 = 0.01 | 667 | 586
11520 kPa, x1 = 0.025 | – | 677
11540 kPa, x1 = 0.025 | 751 | –
11540 kPa, x1 = 0.1 | 897 | –
11580 kPa, x1 = 0.05 | 803 | –
11590 kPa, x1 = 0.025 | – | 682
11600 kPa, x1 = 0.15 | – | 928
11630 kPa, x1 = 0.01 | – | 594
11660 kPa, x1 = 0.025 | – | 686
11700 kPa, x1 = 0.025 | 757 | –
11720 kPa, x1 = 0.05 | – | 759
11730 kPa, x1 = 0.025 | – | 690
11740 kPa, x1 = 0.1 | – | 864
11760 kPa, x1 = 0.15 | 950 | –
11770 kPa, x1 = 0.1 | – | 865
11790 kPa, x1 = 0.01 | – | 606
11800 kPa, x1 = 0.01 | 681 | –
11800 kPa, x1 = 0.025 | – | 694
11800 kPa, x1 = 0.05 | 808 | –
11820 kPa, x1 = 0.025 | 763 | –
11840 kPa, x1 = 0.05 | – | 763
11880 kPa, x1 = 0.1 | – | 867
11890 kPa, x1 = 0.025 | – | 698
11920 kPa, x1 = 0.01 | – | 615
11920 kPa, x1 = 0.15 | – | 931
11970 kPa, x1 = 0.025 | 768 | –
11970 kPa, x1 = 0.05 | – | 768
11980 kPa, x1 = 0.01 | – | 621
11990 kPa, x1 = 0.025 | – | 703
12010 kPa, x1 = 0.1 | 903 | –
12030 kPa, x1 = 0.01 | 691 | –
12050 kPa, x1 = 0.1 | – | 871
12070 kPa, x1 = 0.01 | – | 628
12080 kPa, x1 = 0.05 | 814 | –
12110 kPa, x1 = 0.025 | – | 709
12130 kPa, x1 = 0.025 | 773 | –
12130 kPa, x1 = 0.05 | – | 774
12140 kPa, x1 = 0.15 | 952 | –
12250 kPa, x1 = 0.15 | – | 934
12280 kPa, x1 = 0.025 | – | 716
12300 kPa, x1 = 0.01 | – | 639
12310 kPa, x1 = 0.05 | – | 779
12320 kPa, x1 = 0.05 | 820 | –
12330 kPa, x1 = 0.025 | 778 | –
12520 kPa, x1 = 0.025 | 784 | –
12540 kPa, x1 = 0.1 | 910 | –
12620 kPa, x1 = 0.05 | 826 | –
12660 kPa, x1 = 0.15 | 956 | –
12710 kPa, x1 = 0.025 | 790 | –
12920 kPa, x1 = 0.025 | 795 | –
12960 kPa, x1 = 0.05 | 832 | –
13080 kPa, x1 = 0.1 | 915 | –
13150 kPa, x1 = 0.025 | 801 | –
13170 kPa, x1 = 0.15 | 959 | –
13320 kPa, x1 = 0.05 | 838 | –
13390 kPa, x1 = 0.025 | 806 | –
13570 kPa, x1 = 0.05 | 843 | –
13640 kPa, x1 = 0.025 | 812 | –
13720 kPa, x1 = 0.15 | 962 | –
13790 kPa, x1 = 0.1 | 923 | –
14000 kPa, x1 = 0.05 | 850 | –
14100 kPa, x1 = 0.025 | 821 | –
14230 kPa, x1 = 0.15 | 965 | –
14430 kPa, x1 = 0.05 | 856 | –
14490 kPa, x1 = 0.1 | 929 | –
14840 kPa, x1 = 0.05 | 862 | –
14860 kPa, x1 = 0.15 | 969 | –
14880 kPa, x1 = 0.1 | 932 | –
15440 kPa, x1 = 0.15 | 972 | –
15620 kPa, x1 = 0.05 | 872 | –
15960 kPa, x1 = 0.15 | 975 | –
16660 kPa, x1 = 0.15 | 979 | –
17270 kPa, x1 = 0.15 | 982 | –

mass density [kg/m3], 322.9 K, high pressure variable cell
Settings | x1 = 0.01 | x1 = 0.025 | x1 = 0.05 | x1 = 0.1 | x1 = 0.15
Gas | 514 | 672 | 763 | – | –
Liquid | – | – | – | 877 | 936
